Measurements: patent publication US12460243B2, “Mass spectrometry determination of the sensitivity or resistance of bacteria to an antibiotic” (priority 2019, dated 2025)
Where “and” joins values, the source holds several entries; their conditions need not be identical. Identical values can stand only once. Bridge positions count the residues as written; N and C are the ends. Square brackets hold non-standard residues; d marks the D form. Peptide text beside a SMILES is read from it. * marks the point of attachment. Heptanoyl(6-Me) = CC(C)CCCCC(=O)*; Dab = NCC[C@H](N)C(=O)O

Tests used:
Format in all cases: cell-based
[1] = system: Escherichia coli; assay: MALDI-TOF detection of released characteristic proteins, 10 min at 50° C., filtration (examples V, VI); conditions: for Aire sous la courbe des pics observés, Protéine chaperonne de stress acide HdeB / Aire sous la courbe des pics observés, Protéine ribosomique 50S L29 / Aire sous la courbe des pics observés, Protéine ribosomique 50S L31 / Aire sous la courbe des pics observés, Protéine ribosomique 50S L33 / Aire sous la courbe des pics observés, SPIRAP (Stationary-Phase-Induced Ribosome-Associated Protein) / Ratio par protéine HdeB/Colistine / Ratio par protéine L29/Colistine / Ratio par protéine L31/Colistine / Ratio par protéine L33/Colistine / Ratio par protéine SIRAP/Colistine / Somme des ratios / sensitivity or resistance to colistin by MALDI-TOF: colistin 2.5 mg/ml, 10 min 50° C.; for classification by sum of the ratios against threshold: threshold 0.30
Method: (§1) The tests were carried out using the following steps: • preparing a suspension of microorganism at 2 McF in water (suspension medium, bioMérieux reference 70700), • preparing a solution of colistin sulfate (Sigma reference C4461) at a concentration of 2× in pure water (taking into account the colistin titer indicated by the manufacturer).
In the context of this example, the tests were carried out with the method of the present invention to determine the sensitivity or resistance of several bacteria of several strains such as in example V and comprising the following steps: • measuring the intensity of each peak observed, • finding a ratio between the sum of the intensities of the protein peaks of the microorganism and at least 1 peak of colistin. • determining the status, resistant or sensitive to colistin, as a function of the sum of the ratios obtained and of a threshold fixed for each species. • a resistant microorganism will have a low ratio and a sensitive microorganism will have a high ratio.
Firstly, the same strains of E. coli (EC_S10, EC_S15, EC_R16, EC_R17), used previously, are studied and the proteins characteristic of the species E. coli are analyzed. They are the following proteins: the stationary-phase-induced ribosome-associated protein (SPIRAP), the acid stress chaperone HdeB and the 50S ribosomal proteins L29, L31 and L33.

[2] = system: Pseudomonas aeruginosa; assay: MALDI-TOF detection of released characteristic proteins, 10 min at 50° C., filtration (example V); conditions: colistin 20 μg/ml, 10 min 50° C.
Method: as §1
(§2) The strains of A. baumannii (AB_S044, AB_S045, AB_S046, AB_R-E105) and of Pseudomonas aeruginosa (PA_S062, PA_SE64, PA_RE66, PA_RE68) are analyzed with the protocol described in example V. Thus, they are incubated in the presence of 20 μg/ml of colistin.

[3] = system: Acinetobacter baumannii; assay: as above; conditions: colistin 20 μg/ml, 10 min 50° C.
Method: as §1, §2

[4] = system: Escherichia coli; assay: microdilution in broth (reference method)
Method: (§3) So as to be able to evaluate the efficacy of the method according to the invention, the different strains were analyzed beforehand by microdilution in broth in order to determine their status (sensitive or resistant). This method is regarded as the reference method by the CLSI and EUCAST.

[5] = system: Klebsiella pneumoniae; assay: microdilution in broth (reference method)
Method: as §3

CC(C)CCCCC(=O)N[C@@H](CCN)C(=O)N[C@H](C(=O)N[C@@H](CCN)C(=O)N[C@H]1CCNC(=O)[C@H]([C@@H](C)O)NC(=O)[C@H](CCN)NC(=O)[C@H](CCN)NC(=O)[C@H](CC(C)C)NC(=O)[C@@H](CC(C)C)NC(=O)[C@H](CCN)NC1=O)[C@@H](C)O [colistin] ({Heptanoyl(6-Me)}-[Dab]T[Dab][Dab][Dab][dL]L[Dab][Dab]T; lactam 4-C)
Aire sous la courbe des pics observés, Protéine chaperonne de stress acide HdeB ([1]; strain EC-R16): 0.00 unité arbitraire
Aire sous la courbe des pics observés, Protéine ribosomique 50S L29 ([1]; strain EC-R16): 0.00 unité arbitraire
Aire sous la courbe des pics observés, Protéine ribosomique 50S L31 ([1]; strain EC-R16): 0.00 unité arbitraire
Aire sous la courbe des pics observés, Protéine ribosomique 50S L33 ([1]; strain EC-R16): 0.00 unité arbitraire
Aire sous la courbe des pics observés, SPIRAP (Stationary-Phase-Induced Ribosome-Associated Protein) ([1]; strain EC-R16): 0.00 unité arbitraire
Ratio par protéine HdeB/Colistine ([1]; strain EC-R16): 0.00
Ratio par protéine L29/Colistine ([1]; strain EC-R16): 0.00
Ratio par protéine L31/Colistine ([1]; strain EC-R16): 0.00
Ratio par protéine L33/Colistine ([1]; strain EC-R16): 0.00
Ratio par protéine SIRAP/Colistine ([1]; strain EC-R16): 0.00
Somme des ratios ([1]; strain EC-R16): 0.00
classification by sum of the ratios against threshold ([1]; strain EC-R16): resistant (the strains whose sum of the ratios is strictly below 0.30 will be considered as resistant)
Aire sous la courbe des pics observés, Protéine chaperonne de stress acide HdeB ([1]; strain EC-R17): 0.00 unité arbitraire
Aire sous la courbe des pics observés, Protéine ribosomique 50S L29 ([1]; strain EC-R17): 0.00 unité arbitraire
Aire sous la courbe des pics observés, Protéine ribosomique 50S L31 ([1]; strain EC-R17): 0.00 unité arbitraire
Aire sous la courbe des pics observés, Protéine ribosomique 50S L33 ([1]; strain EC-R17): 0.00 unité arbitraire
Aire sous la courbe des pics observés, SPIRAP (Stationary-Phase-Induced Ribosome-Associated Protein) ([1]; strain EC-R17): 0.00 unité arbitraire
Ratio par protéine HdeB/Colistine ([1]; strain EC-R17): 0.00
Ratio par protéine L29/Colistine ([1]; strain EC-R17): 0.00
Ratio par protéine L31/Colistine ([1]; strain EC-R17): 0.00
Ratio par protéine L33/Colistine ([1]; strain EC-R17): 0.00
Ratio par protéine SIRAP/Colistine ([1]; strain EC-R17): 0.00
Somme des ratios ([1]; strain EC-R17): 0.00
classification by sum of the ratios against threshold ([1]; strain EC-R17): resistant (the strains whose sum of the ratios is strictly below 0.30 will be considered as resistant)
Ratio par protéine HdeB/Colistine ([1]; strain EC-S10): 0.15
Ratio par protéine L33/Colistine ([1]; strain EC-S10): 0.15
Somme des ratios ([1]; strain EC-S10): 0.30 and 0.39
classification by sum of the ratios against threshold ([1]; strain EC-S10): sensitive (the strains whose sum of the ratios is greater than or equal to 0.30 will be considered as sensitive)
Aire sous la courbe des pics observés, Protéine chaperonne de stress acide HdeB ([1]; strain EC-S15): 97.46 unité arbitraire and 60.9 unité arbitraire
Aire sous la courbe des pics observés, Protéine ribosomique 50S L33 ([1]; strain EC-S15): 86.71 unité arbitraire and 68.12 unité arbitraire
Aire sous la courbe des pics observés, SPIRAP (Stationary-Phase-Induced Ribosome-Associated Protein) ([1]; strain EC-S15): 0.00 unité arbitraire
Ratio par protéine HdeB/Colistine ([1]; strain EC-S15): 0.21
Ratio par protéine L29/Colistine ([1]; strain EC-S15): 0.02 and 0.01
Ratio par protéine L31/Colistine ([1]; strain EC-S15): 0.02 and 0.04
Ratio par protéine L33/Colistine ([1]; strain EC-S15): 0.26 and 0.19
Somme des ratios ([1]; strain EC-S15): 0.55 and 0.44
classification by sum of the ratios against threshold ([1]; strain EC-S15): sensitive (the strains whose sum of the ratios is greater than or equal to 0.30 will be considered as sensitive)
sensitivity or resistance to colistin by MALDI-TOF ([1]; strain EC_R16): resistant
sensitivity or resistance to colistin by MALDI-TOF ([1]; strain EC_R17): resistant
sensitivity or resistance to colistin by MALDI-TOF ([1]; strain EC_S10): sensitive
sensitivity or resistance to colistin by MALDI-TOF ([1]; strain EC_S15): sensitive
sensitivity or resistance to colistin by MALDI-TOF ([2]; strain PA_RE66): resistant
sensitivity or resistance to colistin by MALDI-TOF ([2]; strain PA_RE68): resistant
sensitivity or resistance to colistin by MALDI-TOF ([2]; strain PA_S062): sensitive
sensitivity or resistance to colistin by MALDI-TOF ([2]; strain PA_SE64): sensitive
sensitivity or resistance to colistin by MALDI-TOF ([3]; strain AB_R-E105): resistant
sensitivity or resistance to colistin by MALDI-TOF ([3]; strain AB_S044): sensitive
sensitivity or resistance to colistin by MALDI-TOF ([3]; strain AB_S045): sensitive
sensitivity or resistance to colistin by MALDI-TOF ([3]; strain AB_S046): sensitive
Statuts par microdilution ([4]; strain EC_R16 (mcr-1 plasmid)): Résistante
Statuts par microdilution ([4]; strain EC_R17 (mcr-1 plasmid)): Résistante
Statuts par microdilution ([4]; strain EC_S10): Sensible
Statuts par microdilution ([4]; strain EC_S15): Sensible
Statuts par microdilution ([5]; strain KP_R9 (chromosomal)): Résistante
Statuts par microdilution ([5]; strain KP_S10): Sensible
Statuts par microdilution ([5]; strain KP_S15): Sensible
Statuts par microdilution ([5]; strain KR_R16 (chromosomal)): Résistante
